According to US9516824B2, “Method for modulating the number of archesporial cells in a developing anther” (The Board of Trustees of the Leland Stanford Junior …, priority 2012, dated 2016):
“Also recorded” adds a separate entry of the source.

Legend:
maize anthers [1] = assay: Oxygen tension / ROS manipulation of the tassel airspace (gas by hose or needle, chemical injection): locule cell counts and SPL/EN bilayer progression by confocal imaging; conditions: for AR specification / AR cell counts compared to puncture controls: injected into tassel airspace: 1 mM H2O2, 10 mM KI, 200 μM PTIO, 48 h prior to dissection; for AR specification / AR cell counts compared to puncture controls / somatic bilayer formation / development / AR morphological differentiation: 100 μM L-NNA, 20 μM SNP; for somatic bilayer formation / development: injected: 1 mM H2O2, 200 μM PTIO, compared to puncture control and untreated; for peripheral counts compared to needle puncture control / total L2 counts compared to needle puncture control: injection of 1 mL of 1 mM H2O2 or 10 mM KI; for AR morphological differentiation: injected: 200 μM PTIO; for SPL/EN bilayer (somatic niche) formation: gas treatment by hose or needle, 24 or 48 h; for peripheral somatic cell counts: late stages after 48 hour gas exposure
Method: Fertile W23 inbred anthers were stained with propidium iodide and imaged in Z-stack using a Leica SP5 confocal microscope (6). The ontogeny of locular cell types was cataloged over ˜2.5 days as anthers grew in length from 100 to 300 μm. […] The morphological characteristics of pre-meiotic cells are well established (18).
N2 or O2 gas was administered through hoses threaded into the leaf whorl (FIG. 15B). […] Alternatively, nitrogen, oxygen, or compressed air (20% O2) were administered by connecting gas lines to a needle inserted into the tassel airspace (FIGS. 15, C and D). In all experiments, a low flow of gas was administered over a 24 (A619) or 48 hour period (W23). Total locule cells (FIGS. 2, B, H, and M), peripheral somatic cells (FIGS. 2, C, I, and N), and central AR cells (FIGS. 2, D, J, and O) were quantified.
Confocal imaging, and EdU and PI staining were performed as described previously (6). Oxygen probe was an Oxygraph Tx3 (NTH-Pst1-L5-NS40-0.8-YOP) obtained from Presens (Regensburg, Germany). All chemicals were obtained from Sigma Chemical Co. (St. Louis, Mo.) and dissolved in water at the indicated molarities and injected using a 26 gauge needle into the airspace surrounding the immature tassel.

maize anthers [2] = assay: Ectopic archesporial (AR) cell formation after reducing or oxidizing treatments; type: in vivo; conditions: for ectopic AR location by CT: internal (near or in the CT and VT); for # having ectopic AR: number of anthers; for ectopic AR location by EPI: superficial (near or on the EPI)
[3] = fertile, needle trial, 48 h gas treatment
[4] = fertile genotype, listed as N2 (direct)
[5] = fertile genotype, listed as N2 (hose)
[6] = fertile genotype, listed as O2 (direct)
[7] = fertile genotype, listed as O2 (hose)

c1ccc2c(c1)[I+]c1ccccc1-2 [DPI, Diphenylene iodonium]
effect on tassel tissues (maize anthers [1]; injected into tassel airspace): complete degeneration of the tassel tissues

OO [H2O2, hydrogen peroxide]
AR count (treatment effect) (maize anthers [1]; fertile genotype): fewer
SPL/EN timing (treatment effect) (maize anthers [1]; fertile genotype): delayed
AR specification / AR cell counts compared to puncture controls (maize anthers [1]): lowered AR cell counts
somatic bilayer formation / development (maize anthers [1]): inhibited subsequent somatic bilayer formation
peripheral counts compared to needle puncture control (maize anthers [1]): greatly reduced
total L2 counts compared to needle puncture control (maize anthers [1]): greatly reduced
AR count (treatment effect) (maize anthers [1]; mac1 genotype): extra
ectopic AR location by CT (maize anthers [2]; fertile genotype): 0
# having ectopic AR (maize anthers [2]; fertile genotype): 0
ectopic AR location by EPI (maize anthers [2]; fertile genotype): 0
ectopic AR location by CT (maize anthers [2]; mac1 genotype): 0
# having ectopic AR (maize anthers [2]; mac1 genotype): 0
ectopic AR location by EPI (maize anthers [2]; mac1 genotype): 0
AR specification in msca1 anthers (maize anthers [2]): lacked AR
AR per event (average count of ectopic AR cells in each instance) (maize anthers [2]; msca1 genotype): 2
niche - forming (periclinal divisions generating EN/SPL-like bilayer around ectopic AR) (maize anthers [2]; msca1 genotype): yes
ectopic AR location by CT (maize anthers [2]; msca1 genotype): 0
# having ectopic AR (maize anthers [2]; msca1 genotype): 0
ectopic AR location by EPI (maize anthers [2]; msca1 genotype): 0

[I-].[K+] [KI]
AR:total L2 ratios (maize anthers [1]; 10 mM KI injected): increased AR:total L2 ratios
AR count (treatment effect) (maize anthers [1]; fertile genotype): extra
SPL/EN timing (treatment effect) (maize anthers [1]; fertile genotype): early
AR specification / AR cell counts compared to puncture controls (maize anthers [1]): dramatically promoted AR specification
peripheral counts compared to needle puncture control (maize anthers [1]): did not alter
total L2 counts compared to needle puncture control (maize anthers [1]): did not alter
AR count (treatment effect) (maize anthers [1]; mac1 genotype): extra
AR count (treatment effect) (maize anthers [1]; msca1 genotype): extra
AR per event (average count of ectopic AR cells in each instance) (maize anthers [2]; fertile genotype): 7
ectopic AR location by CT (maize anthers [2]; fertile genotype): 0
# having ectopic AR (maize anthers [2]; fertile genotype): 2
ectopic AR location by EPI (maize anthers [2]; fertile genotype): 2
# having ectopic AR (maize anthers [2]; mac1 genotype): 0
ectopic AR location by EPI (maize anthers [2]; mac1 genotype): 0
AR specification in msca1 anthers (maize anthers [2]): caused AR specification
AR per event (average count of ectopic AR cells in each instance) (maize anthers [2]; msca1 genotype): 3
# having ectopic AR (maize anthers [2]; msca1 genotype): 6
ectopic AR location by EPI (maize anthers [2]; msca1 genotype): 5
percent of treated anthers having AR cells (maize anthers [2]; msca1 mutant, 20 μM SNP or KI injected): 9.5%

N=C(NCCC[C@H](N)C(=O)O)N[N+](=O)[O-] [L-NNA, N^G-nitro-L-Arginine]
AR count (treatment effect) (maize anthers [1]; fertile genotype): fewer
SPL/EN timing (treatment effect) (maize anthers [1]; fertile genotype): delayed
AR specification / AR cell counts compared to puncture controls (maize anthers [1]): slightly repressed; also recorded: slightly suppressed AR counts
AR morphological differentiation (maize anthers [1]): slowed the morphological differentiation of central AR cells; also recorded: delayed AR morphological differentiation
somatic bilayer formation / development (maize anthers [1]): dramatically delayed
AR count (treatment effect) (maize anthers [1]; mac1 genotype): extra
AR per event (average count of ectopic AR cells in each instance) (maize anthers [2]; fertile genotype): 2
niche - forming (periclinal divisions generating EN/SPL-like bilayer around ectopic AR) (maize anthers [2]; fertile genotype): yes
ectopic AR location by CT (maize anthers [2]; fertile genotype): 1
# having ectopic AR (maize anthers [2]; fertile genotype): 1
ectopic AR location by EPI (maize anthers [2]; fertile genotype): 0
ectopic AR location by CT (maize anthers [2]; mac1 genotype): 0
# having ectopic AR (maize anthers [2]; mac1 genotype): 0
ectopic AR location by EPI (maize anthers [2]; mac1 genotype): 0
AR specification in msca1 anthers (maize anthers [2]): lacked AR
ectopic AR location by CT (maize anthers [2]; msca1 genotype): 0
# having ectopic AR (maize anthers [2]; msca1 genotype): 0
ectopic AR location by EPI (maize anthers [2]; msca1 genotype): 0

N#N [N2, nitrogen]
AR count (treatment effect) (maize anthers [1]; fertile genotype): extra
SPL/EN timing (treatment effect) (maize anthers [1]; fertile genotype): early
AR specification and AR cell counts compared to untreated fertile anthers (maize anthers [1]; fertile, all three gas protocols (hose 48 h W23, hose 24 h A619, needle)): early specification and excess AR cells
AR:total L2 ratio (maize anthers [1]; fertile, gas treatment): elevated ratios
SPL/EN bilayer (somatic niche) formation (maize anthers [1]; fertile): formed early; also recorded: precocious bilayer formation
central AR as fraction of total L2 cells (maize anthers [1]; fertile, gas treatment, early stages): up to 25%
peripheral somatic cell counts (maize anthers [1]; fertile): increased peripheral somatic cell counts
AR counts (maize anthers [1]; [3]): Excess presumptive AR cells
AR count (treatment effect) (maize anthers [1]; mac1 genotype): extra
AR count (treatment effect) (maize anthers [1]; msca1 genotype): none
AR per event (average count of ectopic AR cells in each instance) (maize anthers [2]; fertile genotype): 5
ectopic AR location by CT (maize anthers [2]; fertile genotype): 0
# having ectopic AR (maize anthers [2]; [4]): 4
# having ectopic AR (maize anthers [2]; [5]): 0
ectopic AR location by EPI (maize anthers [2]; [4]): 4
ectopic AR location by EPI (maize anthers [2]; [5]): 0
ectopic AR formation (maize anthers [2]; hose protocol): did not cause ectopic AR in any anthers
AR per event (average count of ectopic AR cells in each instance) (maize anthers [2]; mac1 genotype): 3
ectopic AR location by CT (maize anthers [2]; mac1 genotype): 2
# having ectopic AR (maize anthers [2]; mac1 genotype): 7
ectopic AR location by EPI (maize anthers [2]; mac1 genotype): 5
ectopic AR location by CT (maize anthers [2]; msca1 genotype): 0
# having ectopic AR (maize anthers [2]; msca1 genotype): 0
ectopic AR location by EPI (maize anthers [2]; msca1 genotype): 0

O=O [O2, oxygen]
AR count (treatment effect) (maize anthers [1]; [6]): extra
SPL/EN timing (treatment effect) (maize anthers [1]; [6]): delayed
AR count (treatment effect) (maize anthers [1]; [7]): fewer
SPL/EN timing (treatment effect) (maize anthers [1]; [7]): late
SPL/EN bilayer (somatic niche) formation (maize anthers [1]; fertile): delayed
AR specification (maize anthers [1]; fertile, hose gas treatment): repressed AR specification
AR counts (maize anthers [1]; fertile, hose, 24 hour exposure): significantly fewer AR than either untreated or N2
central AR counts (maize anthers [1]; fertile, hose, 48 hour treatment): far lower than N2
peripheral somatic cell counts (maize anthers [1]; fertile): increased peripheral somatic cells in the late stages
AR counts (maize anthers [1]; [3]): elevated in the needle trial, less than compressed air and dramatically less than nitrogen
AR count (treatment effect) (maize anthers [1]; mac1 genotype): extra
AR count (treatment effect) (maize anthers [1]; msca1 genotype): none
AR per event (average count of ectopic AR cells in each instance) (maize anthers [2]; fertile genotype): 3.7
niche - forming (periclinal divisions generating EN/SPL-like bilayer around ectopic AR) (maize anthers [2]; fertile genotype): ~half
ectopic AR location by CT (maize anthers [2]; [6]): 12
ectopic AR location by CT (maize anthers [2]; [7]): 0
# having ectopic AR (maize anthers [2]; [6]): 18
# having ectopic AR (maize anthers [2]; [7]): 0
ectopic AR location by EPI (maize anthers [2]; [6]): 6
ectopic AR location by EPI (maize anthers [2]; [7]): 0
ectopic AR location by CT (maize anthers [2]; mac1 genotype): 0
# having ectopic AR (maize anthers [2]; mac1 genotype): 0
ectopic AR location by EPI (maize anthers [2]; mac1 genotype): 0
ectopic AR location by CT (maize anthers [2]; msca1 genotype): 0
# having ectopic AR (maize anthers [2]; msca1 genotype): 0
ectopic AR location by EPI (maize anthers [2]; msca1 genotype): 0

CC1(C)N([O])C(c2ccccc2)=[N+]([O-])C1(C)C [PTIO, 2-Phenyl-4,4,5,5-tetramethylimidazoline-1-oxyl-3-oxide]
AR count (treatment effect) (maize anthers [1]; fertile genotype): fewer
SPL/EN timing (treatment effect) (maize anthers [1]; fertile genotype): delayed
AR specification / AR cell counts compared to puncture controls (maize anthers [1]): slightly repressed; also recorded: slightly suppressed AR counts
AR morphological differentiation (maize anthers [1]): slowed the morphological differentiation of central AR cells; also recorded: delayed AR morphological differentiation
somatic bilayer formation / development (maize anthers [1]): dramatically delayed
AR count (treatment effect) (maize anthers [1]; mac1 genotype): extra
AR per event (average count of ectopic AR cells in each instance) (maize anthers [2]; fertile genotype): 5
niche - forming (periclinal divisions generating EN/SPL-like bilayer around ectopic AR) (maize anthers [2]; fertile genotype): yes
ectopic AR location by CT (maize anthers [2]; fertile genotype): 3
# having ectopic AR (maize anthers [2]; fertile genotype): 4
ectopic AR location by EPI (maize anthers [2]; fertile genotype): 1
ectopic AR location by CT (maize anthers [2]; mac1 genotype): 0
# having ectopic AR (maize anthers [2]; mac1 genotype): 0
ectopic AR location by EPI (maize anthers [2]; mac1 genotype): 0
AR specification in msca1 anthers (maize anthers [2]): lacked AR
ectopic AR location by CT (maize anthers [2]; msca1 genotype): 0
# having ectopic AR (maize anthers [2]; msca1 genotype): 0
ectopic AR location by EPI (maize anthers [2]; msca1 genotype): 0
